Reference: patent publication US12576055B2, “Disease detection and treatment based on trimethyl-lysine levels” (The Cleveland Clinic Foundation, priority 2018, dated 2026)

Tests used:
[1] = tested on: carotid artery thrombus formation; experiment: In vivo carotid artery thrombosis model (FeCl3 induced injury); design: species or system C57BL/6J mice; settings: 1% supplemented diet for 11 days
Method: Conventional mice (female, 10 weeks old, C57BL/6J, 10 per treatment group) were placed on chemically defined diets for 11 days. Mice were assessed for in vivo thrombosis potential with the common carotid injury model by application of 10% FeCl3 for 1 min (11, 38). […] The left carotid artery was exposed and injured by placing a FeCl3 soaked filter paper for one minute. […] Time to cessation of blood flow was determined by visual inspection of computer images of the thrombosis process from 30 seconds to 30 minutes by investigators blinded to mouse treatment group.

[2] = female, C57BL/6J, mouse, in vivo
Method: Stable isotope dilution LC/MS/MS was used for quantification of TML, TMAO, TMA, lysine, γ-butyrobetaine and carnitine similar to that described previously (1, 8, 9, 15). For TML standard curves, varying levels of TML were spiked into 20 μl control plasma followed by precipitation with 80 μl methanol containing 0.8 nmol d9-TML. Supernatant was loaded for LC/MS/MS analysis. Analyses were performed using electrospray ionization in positive-ion mode with multiple reaction monitoring of parent and characteristic daughter ions and retention times specific for components monitored. The transitions monitored for TML were mass-to-charge ratio (m/z): m/z 189.1→84.1, 189.1→60.1, and 189.1→130.1. The internal standards (e.g., d9-trimethyl-TML, d9-trimethyl-TMAO) were added to plasma before protein precipitation. Various concentrations of analytes and a fixed amount of internal standards were spiked into control plasma to prepare the calibration curves for quantification of plasma analytes. Their concentrations in human and mouse plasma samples were determined by high-performance liquid chromatography with a Shimadzu 8050 triple quadrupole mass spectrometer interfaced to a Shimadzu Nexera Ultra High Performance Liquid Chromatograph (UHPLC) system.
Conventional mice (female, 10 weeks old, C57BL/6J, 10 per treatment group) were placed on chemically defined diets for 11 days.

[3] = reference (19); cited from earlier work
[4] = Oral (gastric gavage) d9-TML or d9-choline isotope tracer challenge, serial plasma levels by LC/MS/MS
Method: Supernatant was loaded for LC/MS/MS analysis.
Whole blood (50 μl) was collected via the saphenous vein from C57BL/6J (Jackson #0664) female mice prior to gavage for the measurement of baseline analyte levels. Mice were administered an oral dose of stable isotope-labelled TML or choline. The gastric gavage consisted of 150 μl of either 150 mM synthetic d9-TML or 150 mM choline-N,N,N-trimethyl-d9 (d9-choline, Cambridge Isotope Lab), followed by post-gavage blood collection at the indicated times. Where indicated, gut microbiota were suppressed in mice by placement of a cocktail of poorly absorbed antibiotics in drinking water for 3 weeks prior to the d9-TML challenge, as previously described (1, 19). Quantification of the abundance of native and isotope-labeled forms of TML, TMA and TMAO in mouse plasma was performed using stable-isotope-dilution LC-MS/MS using established methods for TMA and TML (19), and using the parent daughter ion transitions for TML and its internal standard as described above. In additional studies, the role of gut microbiota in TMAO formation from dietary TML was determined in C57BL/6J mice by performance of oral (gavage) d9-TML challenge. Mice were housed in conventional cages in the absence or presence of a cocktail of broad spectrum antibiotics added to the drinking water previously shown to suppress gut microbiota (1,19).

[5] = tested on: mouse cecal, colonic and small bowel microbiota; experiment: Gut microbial TMA lyase activity assay, d9-TMA production in anaerobic cultures of mouse intestine segments
Method: (§1) TMA lyase activity was monitored by quantifying d9-TMA production from d9(trimethyl) labeled potential nutrient precursors by stable isotope dilution LC/MS/MS analysis. Briefly, TMA lyase activity was typically quantified by incubating the indicated enzyme source (C57BL/6J female mouse intestine segments or human feces from healthy vegans/vegetarians and omnivores). Reactions were initiated by the addition of d9-labeled substrates (d9-TML, d9-carnitine or d9-choline) incubated under anaerobic conditions. Following 20 hours incubation at 37° C., reactions were halted, [^13C3,^15N]-TMA (Sigma Chemicals, St. Louis, MO) in 0.2 N formic acid was added as an internal standard, followed by immediate extraction of TMA isotopologues into the organic layer produced following mixing with successive additions of 2 ml hexane, 1 ml butanol and 0.2 ml 1N NaOH (to deprotonate the TMA isotopologues). Mixtures were then vortexed, centrifuged, and the upper hexane layer was transferred to a 12×75 mm PTFE capped threaded glass tube, acidified with the addition of 200 μl of 0.2 N formic acid, vortexed and the organic and aqueous layers were separated by centrifugation. The now protonated TMA isotopologues were recovered in the aqueous phase for quantitation by stable isotope dilution LC/MS/MS analysis. Sample aliquots were injected onto a reverse phase C18 HPLC column (2.0×150 mm, 5 μm, Phenomenex Prodigy (Phenomenex)) eluted at a flow rate of 0.2 ml/min and resolved using a linear gradient between 0.2% formic acid in water and 0.2% formic acid in acetonitrile/methanol (95:5, v/v). HPLC column effluent was introduced into an AB Sciex 5500 QTRAP mass spectrometer using electrospray ionization in the positive-ion mode. Both d9-TMA and [^13C3,^15N]TMA were monitored using multiple reaction monitoring of parent and characteristic daughter ions: m/z 69→49 for d9-TMA; and m/z 64→47 for [^13C3,^15N]TMA. Reactions without microbial enzyme source (tissues, cells, cell lysates, or isolated proteins) were used as blank.

[6] = tested on: human fecal commensals (omnivores and vegans); experiment: Gut microbial TMA lyase activity assay, d9-TMA production in human polymicrobial fecal anaerobic cultures; type: in vitro ADME
Method: as §1
(§2) Human feces and all bacteria including individual strain and fresh combined 68 strains were grown with 100 μM d9-TML or d9-choline (as a positive control) in complex reduced medium in a Coy anaerobic chamber (5% H2, 20% CO2, and 75% N2, 37° C.) for 0-4 days as previously described (27). The reaction was stopped by adding 6N HCl to samples (1:100 dilution to 60 mM final), and freezing at −80° C. until d9-TMA extraction and analysis by LC-MS/MS, as described in Methods above.

[7] = tested on: panel of 68 culturable human commensals; experiment: In vitro screening for the conversion of d9-TML to d9-TMA by culturable human commensals; type: in vitro ADME, human gut bacteria
Method: as §2

[8] = tested on: cutC/D, yeaX/W, or cntA/B microbial TMA generating enzyme systems; experiment: Recombinant microbial TMA lyases expressed in E. coli, d9-TMA production from d9-labeled substrates; type: biochemical; settings: E. coli transformed with cutC/D
[9] = conventionally reared C57BL/6J mice, gastric gavage 150 μl of 150 mM
[10] = anaerobic culture, 20 hours, 37° C.

With `C[N+](C)(C)CCCC[C@H](N)C(=O)O` [TML, N6-trimethyl-lysine] the “in vivo thrombosis potential (thrombus formation rate, time to cessation of blood flow)” value [1] was “failed to significantly change”, the “plasma level of TMAO after 11 days of the indicated diet” value [2] was 4.5 ± 2.1 µM and the “plasma level of TML after 11 days of the indicated diet” value [2] was 37.0 ± 15.5 µM. For the same molecule, the “increase in plasma TML levels” value ([2]; 11 days) was roughly 100 fold.
For `C[N+](C)(C)CC(=O)O` [betaine], the “rate as TMA nutrient precursor, less than choline” value [3] is given as “about 100 fold”.
For `C[N+](C)(C)CCO` [choline], the “plasma level of TMAO after 11 days of the indicated diet” value [2] was 90.6 ± 55.1 µM, the “plasma level of TML after 11 days of the indicated diet” value [2] was 0.8 ± 0.4 µM and the “rise of plasma TMAO levels” value ([2]; 11 days) was roughly 20 fold.
With `[2H]C([2H])([2H])[N+](CCCCC(N)C(=O)O)(C([2H])([2H])[2H])C([2H])([2H])[2H]` (stereo not shown) [d9-TML, [d9-N, N, N-trimethyl] lysine] the “plasma d9-TMAO following d9-TML oral gavage in mice treated with oral antibiotics” value ([4]; 3 weeks cocktail of poorly absorbed broad-spectrum antibiotics) was “no detectable”, the “impact of pretreatment with oral antibiotics on plasma d9-TML levels following oral gavage” value ([4]; P=0.87) was “no impact” and the “plasma level of d9-TMA following oral d9-TML gavage” value [4, 9] was “rose only minimally”. The “plasma level of d9-TMAO following oral d9-TML gavage” value [4, 9] was “rose only minimally”, the “time to increase in plasma d9-TML level following ingestion” value ([4]; oral gavage, C57BL/6J mice) was no more than 1 h and the “d9-TMA formation by small bowel microbes” value [5, 10] was “significantly lower but detectable levels”. The “d9-TMA generation by microbes from cecal and colonic segments” value [5, 10] was “generated d9-TMA”, the “d9-TML to d9-TMA transformation, feces of omnivores versus vegans” value ([6]; P<0.04) was “significantly greater activity than vegans” and the “overall level of TMA generation from TML in human fecal cultures” value ([6]; omnivores and vegans, anaerobic) was “relatively low”. The “conversion of d9-TML to d9-TMA by eighteen individual members of the human commensal library” value ([7]; anaerobic, 100 μM) was “none of these species significantly promoted conversion”, the “d9-TML to d9-TMA transformation by pool of all 68 species” value ([7]; prolonged (4 days) incubation, assay limit of detection ~1 nM) was “virtually no detectable” and the “conversion into d9-TMA by recombinant microbial TMA generating enzyme systems” value [8] was “none of the known recombinant microbial TMA generating enzyme systems examined supported d9-TML conversion into d9-TMA”.
In the case of `[2H]C(O)(CC(=O)[O-])C([2H])([2H])[N+](C)(C([2H])([2H])[2H])C([2H])([2H])[2H]` (stereo not shown) [d9-carnitine], the “synthetic capacity of cecal microbiota to generate d9-TMA, higher than that observed with d9-TML” value [5] is reported as 10 fold, the “d9-TMA formed in vegan fecal cultures compared with d9-TML” value [6] is reported as “comparable degree” and the “production of d9-TMA in polymicrobial fecal cultures from omnivores, greater” value [6] is reported as greater than 100 fold.
For `[2H]C([2H])([2H])[N+](CCO)(C([2H])([2H])[2H])C([2H])([2H])[2H]` [d9-choline, choline-N,N,N-trimethyl-d9], the “plasma level of isotope labeled precursor compared with d9-TML challenge” value ([4]; mouse, in vivo) was “substantially lower”, the “peak plasma level of d9-TMA, higher than after the same molar amount of oral d9-TML” value ([4]; mouse, in vivo, po) was 30-50 fold and the “peak plasma level of d9-TMAO, higher than after the same molar amount of oral d9-TML” value ([4]; mouse, in vivo, po) was 30-50 fold. The “synthetic capacity of cecal microbiota to generate d9-TMA, higher than that observed with d9-TML” value [5] was 1000 fold and the “d9-TMA conversion in human fecal cultures, greater than the levels produced from d9-TML” value [6] was “approximately 3 orders of magnitude”.
